These results are taken from patent publication US7678791B2, “Nitroheteroaryl-containing rifamycin derivatives” (Cumbre IP Ventures, L.P., priority 2006, dated 2010).

Converted amounts (≈) assume the structure as drawn.

This assay relates to Mycobacterium tuberculosis H37Rv (rif-resistant). Description: microbe, parasite or virus in culture. It counts as cell-based.

With `CO[C@H]1/C=C/O[C@@]2(C)Oc3c(C)c(O)c4c(c3C2=O)C2=NC3(CCN(CCn5c([N+](=O)[O-])cnc5C)CC3)NC2=C(NC(=O)/C(C)=C\C=C\[C@H](C)[C@H](O)[C@@H](C)[C@@H](O)[C@@H](C)[C@H](OC(C)=O)[C@@H]1C)C4=O` [Example 1, 4-Deoxy-3,4-[2-spiro-[1-[2-(2-methyl-5-nitro-imidazol-1-yl)ethyl]-piperidin-4-yl]]-(1H)-imidazo-(2,5-dihydro)rifamycin S], the “antimicrobial activity in words, rifampin-resistant M. tuberculosis” value is given as “retains activity”. Under “Mycobacterium tuberculosis, H37RV”, this molecule yielded an MIC of 5 µg/mL (≈ 5.3 µM).
